Laboratory results: US20030013643A1, “Prevention and treatment of streptococcal and staphylococcal infection” (priority 2000, published 2003)

What was measured:
[1] = tested on: GAS; experiment: GAS translocation through abraded human skin equivalent; assay type: cell-based, Streptococcus pyogenes; conditions: pre-treated at 2 mg/ml for 1 hour; 4 hour infection period
Method: To examine GAS translocation in a model system similar to normal human skin, we utilized pseudo-organ cultures of human skin equivalent. This material is made by constructing a “dermis” that consists of human fibroblasts cultured in a collagen matrix; human foreskin keratinocytes are seeded on top of the dermal equivalent and cultured under conditions that promote differentiation into a stratified squamous epithelium with a stratum comeum. The histology of the human skin equivalent is very similar to that of normal human skin except for the absence of non-keratinocyte elements such as blood vessels and hematopoietic cells, nerves, and hair follicles. Since intact human skin is highly resistant to GAS infection, we simulated minor trauma to the superficial epidermis by abrading the surface of the skin equivalent with a cytology brush to introduce breaks in the stratum corneum. GAS were inoculated onto the surface of abraded skin equivalent that had either been pre-treated with nothing, HA, or AL at 2 mg/ml for 1 hour and translocation through the tissue was monitored by culture of GAS from the basal surface of the skin equivalent at intervals. As depicted in FIG. 10, HA inhibited translocation GAS by 91% (solid bars). In comparison the AL control prevented only 14% of bacteria from translocating through the skin equivalent during the 4 hour infection period. […]

[2] = tested on: GAS; experiment: GAS attachment to murine keratinocyte cell line PAM2.12 with exogenous hyaluronic acid; assay type: cell-based, Streptococcus pyogenes
Method: For bacterial adherence assays, keratinocytes were seeded at 10^5 cells per well in collagen-coated tissue culture wells (Nalge Nunc International, Naperville, Ill.), incubated for 3 days at 34° C. in 8% CO2, washed, and overlaid with medium containing 10^6 CFU of GAS per well. After incubation for 1 hour at 34° C. in 8% CO2 the keratinocyte monolayers were washed twice to remove nonadherent bacteria, then the number of cell-associated bacteria was determined by quantitative culture after releasing the keratinocytes with try spin and lysing them in sterile water, experiments testing the effects of exogenous hyaluronic acid on GAS adherence were performed using the mouse keratinocyte cell line, PAM 2.12 (Song, I. S. 2000, Exp. Dermatol. 9:42-52). Cells were seeded in collagen-coated tissue culture wells at 10^5 cells per well, cultured for 3 days at 37° C. in 5% CO2, then inoculated with 10^6 CFU of GAS per well in medium containing exogenous hyaluronic acid (from rooster comb, Sigma Chemicals, St. Louis, Mo.), no inhibitor, or a control polysaccharide, alginic acid, a high-molecular-weight polymer of mannuronic acid and guluronic acid (Protonal Durvillea Alginate, Pronova. Biopolymer, Inc., Portsmouth, N.H.). Cells were incubated for 45 minutes at 37° C. in 5% CO2, then processed for enumeration of adherent bacteria as described above. In experiments to test whether exogenous hyaluronic acid could promote dissociation of GAS attached to keratinocytes, GAS were allowed to attach to keratinocytes in the absence of inhibitor; after 45 minutes, the medium was removed and replaced with fresh medium containing hyaluronic acid, no inhibitor, or alginic acid. After 45 minutes of incubation, the number of adherent bacteria was enumerated as described above.
To investigate the specificity of the interaction between the GAS capsule and CD44 on epithelial cells, the ability of exogenous hyaluronic acid to compete with GAS for binding to murine keratinocytes was examined. Addition of exogenous hyaluronic acid to concentration 1 mg/ml[…], inhibited GAS attachment to the murine keratinocyte cell line PAM2.12 by >95% (P<0.03, FIG. 5). A concentration of 1 /ml alginic acid, another high molecular weight acidic polysaccharide, had no effect, supporting the hypothesis that adherence depends on a specific interaction between the GAS hyaluronic acid capsule and CD44 .
In addition to the 1 mg/ml concentration of hyaluronic acid, additional trials were performed as indicated above, with a range of concentrations of hyaluronic acid added to the cells. The concentrations tested included 4 mg/ml, 2 mg/ml, 1 mg/ml, 0.75 mg/ml, 0.5 mg/ml, 0.25 mg/ml and 0.1 mg/ml. The hyaluronic acid concentrations from 4 mg/ml to 0.25 mg/ml blocked GAS binding by greater than 70%. Hyaluronic acid concentrations from 4 mg/ml to 0.5 mg/ml blocked GAS binding by greater than 80% (FIG. 6).

For hyaluronic acid, the “inhibition of translocation of GAS through skin equivalent” value [1] was 91%, the “reduction in bacterial attachment” value ([2]; added up to 45 minutes after adding GAS to the keratinocytes, P<0.03) was greater than 90% and the “reduction of GAS attachment” value ([2]; addition delayed for 2 hours, P<0.03) was 70-80%. For the same substance, the “blocking of GAS binding” value ([2]; concentrations from 4 mg/ml to 0.25 mg/ml) was “greater than 70%”, the “blocking of GAS binding” value ([2]; concentrations from 4 mg/ml to 0.5 mg/ml) was “greater than 80%” and the “inhibition of GAS attachment to PAM2.12” value ([2]; hyaluronic acid 1 mg/ml added with GAS, P<0.03) was greater than 95%.
